Laboratory results: patent US20160303147A1 (priority 2007, published 2016)
Where two headings read alike, the source gives them in different places.

Assays:
[1] = Clinical pharmacokinetics in healthy volunteers, single dose of CMX001; type: in vivo; conditions: Human, analyte = label
Experimental: (§1) An initial study was conducted to evaluate the safety and pharmacokinetics of
(§2) CMX001 in healthy volunteers. The study consisted of a single dose arm (SD) and a multiple dose arm (MD). In the single dose arm 7 cohorts of 6 subjects were treated (4 subjects received active drug and 2 placebo). Enrollment was staggered as 2 subjects (one active, one placebo) followed by 4 subjects (Groups A and B). The estimated single doses for the two highest doses treated for a […] subject were 40 mg (0.6 mg/kg cohort 6) and 70 mg (1 mg/kg cohort 7). In the multiple dose arm, cohort 6MD received 0.1 mg/kg on Day 0, 6 and 12; Cohort 7MD received 0.2 mg/kg on Day 0, 6 and 12. Levels of cidofovir, CMX001 and CMX064 (major metabolite) were measured in blood and urine of subjects during the course of the study. Gastrointestinal (GI) monitoring of the subjects included (a) monitoring for clinical signs of GI adverse events, (b) monitoring for clinical symptoms using a visual Analog Scale, (c) monitoring for appetite loss/anorexia, nausea, vomiting, diarrhea, constipation and intestinal gas/bloating, (d) laboratory tests for fecal occult blood; serum electrolytes, urine specific gravity, BUN/creatinine ratio; serum albumin, and lipids, and (e) diagnostic studies (the Wireless capsule endoscopy (PillCam®, Given Imaging)).
Table 3 illustrates the PK comparison of CMX 001 with CMX 021 and CMX 064 for mouse, rabbit and human.

[2] = test system: lethal Orthopoxivirus infections; type: in vivo; conditions: mice and rabbits
[3] = Clinical safety study in healthy volunteers, single dose cohort 6; type: in vivo, human; conditions: cohort 6, 600 μg/kg single dose, still blinded
Experimental: as §1, §2
Plasma concentration curves of CMX001 following a single dose administration are shown in FIG. 1, and plasma concentration curves of cidofovir following a single dose of CMX001 are shown in FIG. 2.

[4] = intravenous infusion, patients; cited from earlier work

In the case of `Nc1ccn(C[C@@H](CO)OCP(=O)(O)OCCCOCCCC(=O)O)c(=O)n1` [CMX064], the AUCO→ ([1]; CMX001 dose 0.050 mg/kg) is reported as 38.95 ng·h/mL, the Cmax ([1]; CMX001 dose 0.050 mg/kg) is reported as 4.63 ng/mL and the AUCO→ ([1]; CMX001 dose 0.100 mg/kg) is reported as 34.02 ng·h/mL. The Cmax ([1]; CMX001 dose 0.100 mg/kg) was 2.85 ng/mL, the AUCO→ ([1]; CMX001 dose 0.200 mg/kg) was 39.73 ng·h/mL and the Cmax ([1]; CMX001 dose 0.200 mg/kg) was 4.55 ng/mL. The AUCO→ ([1]; CMX001 dose 0.400 mg/kg) was 202.99 ng·h/mL, the Cmax ([1]; CMX001 dose 0.400 mg/kg) was 23.03 ng/mL and the AUCO→ ([1]; CMX001 dose 0.600 mg/kg) was 187.0 ng·h/mL. For the same compound, the Cmax ([1]; CMX001 dose 0.600 mg/kg) was 24.86 ng/mL.
In the case of `CCCCCCCCCCCCCCCCOCCCOP(=O)(O)CO[C@H](CO)Cn1ccc(N)nc1=O` [CMX001], the effective dose ([2]; daily for 5 days, low titer inoculums) is reported as 1 to 2 mg/kg, the effective dose ([2]; late stage, single dose) is reported as 20 to 30 mg/kg and the “protection against lethal Orthopoxivirus infections” value [2] is reported as “essentially completely protective”. The adverse events [3] was “No serious adverse events (SAEs), no significant adverse events (AEs) (i.e. ≧Grade 2), no AEs directly attributable to drug”, the “changes to clinical laboratory values” [3] was “No drug associated clinically significant changes to clinical laboratory values, including those indicative of kidney dysfunction” and the “gastrointestinal capsule endoscopy findings” value [3] was “No post-dose clinically significant gastrointestinal capsule endoscopy findings attributable to drug”.
For `Nc1ccn(C[C@@H](CO)OCP(=O)(O)O)c(=O)n1` [Cidofovir], the nephrotoxicity [4] is listed as “dose-limited by its nephrotoxicity”.
